This assay has as its system peripheral blood from healthy volunteers. The assay can be described thus: Human whole blood incubations (ACh, norepinephrine, cortisol), then lipid mediator profiling of plasma. Type of assay: cell-based. The settings on record: for production of n-3 DPA derived mediators in peripheral blood: norepinephrine 0.1-10 μM, cortisol 1-10 μM, healthy volunteers. Here is the method:
Plasma was obtained from peripheral blood of healthy volunteers and patients following centrifugation at 1500×g for 10 min at room temperature. Descending aortas were weighed, placed in ice-cold methanol and homogenized using a glass dounce.
All samples for LC-MS-MS-based profiling were extracted using solid-phase extraction columns as described in Dalli et al. 2013 and Rathod et al. 2017, the contents of which are incorporated herein by reference.
Prior to sample extraction, deuterated internal standards, representing each region in the chromatographic analysis (500 pg each) were added to facilitate quantification in 4V of cold methanol.
Samples were kept at −20° C. for a minimum of 45 min to allow protein precipitation.
Supernatants were subjected to solid phase extraction, methyl formate fraction collected, brought to dryness and suspended in phase (methanol/water, 1:1, vol/vol) for injection on a Shimadzu LC-20AD HPLC and a Shimadzu SIL-20AC autoinjector, paired with a triple quadrupole mass spectrometer with or without a linear ion trap.
An Agilent Poroshell 120 EC-C18 column (100 mm×4.6 mm×2.7 μm) was kept at 50° C. and mediators eluted using a mobile phase consisting of methanol-water-acetic acid of 20:80:0.01 (vol/vol/vol) that was ramped to 50:50:0.01 (vol/vol/vol) over 0.5 min and then to 80:20:0.01 (vol/vol/vol) from 2 min to 11 min, maintained till 14.5 min and then rapidly ramped to 98:2:0.01 (vol/vol/vol) for the next 0.1 min. This was subsequently maintained at 98:2:0.01 (vol/vol/vol) for 5.4 min, and the flow rate was maintained at 0.5 ml/min. Mass spectrometer was operated using a multiple reaction monitoring method as in Walker M E et al. 13-Series resolvins mediate the leukocyte-platelet actions of atorvastatin and pravastatin in inflammatory arthritis. FASEB J. 2017 August; 31(8):3636-3648, the contents of which are incorporated herein by reference.
Each LM was identified using established criteria including matching retention time to synthetic and authentic materials and at least six diagnostic ions (Walker M E et al. 2017. ibid.)
Calibration curves were obtained for each using synthetic compound mixtures at 0.78, 1.56, 3.12, 6.25, 12.5, 25, 50, 100, and 200 pg that gave linear calibration curves with an r^2 values of 0.98-0.99. […]

[1] abbreviates: whole blood with Cortisol 1 μM, 45 min, n = 5.
[2] abbreviates: whole blood with Cortisol 10 μM, 45 min, n = 5.
[3] abbreviates: whole blood with ACh 0.1 μM, 45 min, 37° C., n = 9.
Setting [4] is: whole blood with ACh 0.1 μM, 45 min, n = 9.

Structures are written as SMILES. Several values for one entry are separate records, joined by “and”; a condition that tells them apart may be missing. Equal entries are not always repeated.

On to `NC[C@H](O)c1ccc(O)c(O)c1` [norepinephrine], for which the “production of n-3 DPA derived mediators in peripheral blood” value was “did not significantly augment”.
Take `C[C@]12CCC(=O)C=C1CC[C@@H]1[C@@H]2[C@@H](O)C[C@@]2(C)[C@H]1CC[C@]2(O)C(=O)CO` [Cortisol, cortisol]: the “production of n-3 DPA derived mediators in peripheral blood” value is reported as “did not significantly augment”. Under setting [1], the 7-HDPA concentration is listed as 268.9 ± 83.5 pg/mL, the 13-HDPA concentration is recorded as 3.2 ± 0.7 pg/mL, the 14-HDPA concentration is given as 286.2 ± 91.0 pg/mL and the 17-HDPA concentration is on record as 74.9 ± 18.2 pg/mL. Further, under setting [1], the DPA concentration stood at 24568.2 ± 6300.4 pg/mL, the “MaR1n-3 DPA concentration” value stood at 0.3 ± 0.2 pg/mL, the “PD1n-3 DPA concentration” value was determined as 1.5 ± 1.1 pg/mL and the “RvD1n-3 DPA concentration” value worked out at 1.9 ± 1.2 pg/mL. For the same compound, under setting [1], the “RvD2n-3 DPA concentration” value is given as 1.0 ± 0.9 pg/mL, the “RvD5n-3 DPA concentration” value is given as 1.1 ± 0.6 pg/mL, the RvT1 concentration was 0.5 ± 0.2 pg/mL and the RvT2 concentration was found to be 0.1 ± 0.1 pg/mL. Also, under setting [1], the RvT3 concentration is 1.6 ± 0.5 pg/mL and the RvT4 concentration was found to be 2.7 ± 1.5 pg/mL. Under setting [2], this compound gave a 7-HDPA concentration of 257.8 ± 109.6 pg/mL, a 13-HDPA concentration of 3.0 ± 0.6 pg/mL, a 14-HDPA concentration of 241.0 ± 40.9 pg/mL and a 17-HDPA concentration of 71.5 ± 17.5 pg/mL. Under setting [2], the DPA concentration was 28823.5 ± 8019.0 pg/mL, the “MaR1n-3 DPA concentration” value turned out to be 0.2 ± 0.2 pg/mL, the “PD1n-3 DPA concentration” value was determined as 2.5 ± 1.5 pg/mL and the “RvD1n-3 DPA concentration” value came out at 1.7 ± 1.5 pg/mL. Besides, under setting [2], the “RvD2n-3 DPA concentration” value is 1.2 ± 0.8 pg/mL, the “RvD5n-3 DPA concentration” value came out at 1.7 ± 0.3 pg/mL, the RvT1 concentration was determined as 0.6 ± 0.2 pg/mL and the RvT2 concentration was 0.1 ± 0.0 pg/mL. In addition, under setting [2], the RvT3 concentration is recorded as 2.2 ± 1.5 pg/mL and the RvT4 concentration came out at 3.0 ± 1.8 pg/mL.
On to `CC(=O)OCC[N+](C)(C)C` [ACh, acetylcholine], for which the “increase in RvD2n-3 DPA compared with blood incubated with vehicle alone” value (whole blood incubated with ACh) was about 160%. Moreover, under setting [3], the 7-HDPA concentration is 44.9 pg/mL and 44.9 ± 10.7 pg/mL; the 13-HDPA concentration was 1.9 pg/mL and 1.9 ± 0.6 pg/mL; the 14-HDPA concentration is 137.2 pg/mL and 137.2 ± 25.8 pg/mL; the 17-HDPA concentration was 58.9 pg/mL and 58.9 ± 13.2 pg/mL. In addition, under setting [3], the DPA concentration is 3873.1 pg/mL and 3873.1 ± 706.3 pg/mL; the “MaR1n-3 DPA concentration” value was 0.9 pg/mL; the “PD1n-3 DPA concentration” value is 0.5 pg/mL; the “RvD1n-3 DPA concentration” value was 4.9 pg/mL. In addition, under setting [3], the “RvD2n-3 DPA concentration” value worked out at 7.4 pg/mL, the “RvD5n-3 DPA concentration” value is 1.5 pg/mL, the RvT1 concentration was found to be 2.0 pg/mL and the RvT2 concentration is on record as 1.6 pg/mL. Further, under setting [3], the RvT3 concentration came out at 1.4 pg/mL and the RvT4 concentration is reported as 1.0 pg/mL. Further, under setting [4], the 4HDHA concentration was found to be 19.9 ± 5.1 pg/mL, the 5HEPE concentration worked out at 42.7 ± 11.3 pg/mL, the 5HETE concentration was 69.9 ± 13.5 pg/mL and the 7HDHA concentration is 8.6 ± 3.7 pg/mL. Under setting [4], this compound yielded a 12HEPE concentration of 402.4 ± 106.0 pg/mL, a 12HETE concentration of 5148.0 ± 1153.2 pg/mL, a 14HDHA concentration of 229.2 ± 41.2 pg/mL and a 15HEPE concentration of 31.3 ± 8.7 pg/mL. Under setting [4], this compound came in with a 15HETE concentration of 336.4 ± 95.2 pg/mL, a 17HDHA concentration of 103.6 ± 25.9 pg/mL, a 18HEPE concentration of 36.2 ± 12.2 pg/mL and an AA concentration of 24205.0 ± 4783.4 pg/mL. Under setting [4], this compound came in with a DHA concentration of 28104.0 ± 10103.4 pg/mL and an EPA concentration of 5867.2 ± 713.2 pg/mL.
